These results are taken from a melting point compilation (Tetko et al.; mined from patent text by program, amines drawn as free bases though some values may be those of a salt).

For the compound `CC(C)(C)C(NC(=O)c1ccccc1)NC(=S)Nc1cccnc1` (stereo unspecified), the melting point was 193 to 194 °C.

Compound `COCOc1cccc2c(=O)[nH]c(CCCN(C)C)cc12` returned a melting point of 110 to 112 °C. Compound `CC(=O)NC1(c2ccc(CN3CCN(c4nccs4)CC3)cc2)CC1` showed a melting point of 184 to 185 °C. `CC(C)(C)OC(=O)NCCC(=O)NCc1cccc2c1C(=O)N(C1CCC(=O)NC1=O)C2=O` (stereo unspecified) registered a melting point of 96 to 98 °C. The result for `Oc1cc(-c2ccccc2)cc(-c2ccccc2)c1` reads 97 °C; that for `CCOC(=O)C(C)(C)NC(=O)c1cccc(C2=NC(C)(C)Cc3c(CC#N)c(OC)c4c(c32)CC(C)(C)O4)c1`, 126 to 128 °C.

In the case of `Nc1nc2cc3nc(NC(=O)CCl)sc3cc2s1`, the melting point turned out to be 300 °C. The figure for `Cc1ccc(-c2nccc3c(CC#N)cccc23)cc1` is 102 °C.

Compound `COc1cc(/C=C/C(=O)/C=C/c2cc(OC)c(O)c(OC)c2)cc(OC)c1O` gave a melting point of 166 to 168 °C. As to `FC(F)(F)Oc1ccc2[nH]c(-c3ccco3)nc2c1`, the melting point lay within 165 to 167 °C. Take `Cc1cccc(-c2[nH]c(C(C)C)nc2-c2cccc(-c3cccnc3)c2)n1`: the melting point was 74 to 77 °C. The figure for `O=S(=O)(Nc1cccc2cc(-c3nc4ccccc4s3)[nH]c12)c1cccs1` is 201 to 202 °C; for `COC(=O)c1ccc2cc(OCc3ccccc3)ccc2c1` it is 148 to 149 °C; for `CC(C)(C)N1C(=O)c2cc([N+](=O)[O-])c(Cl)nc2C1=O` it is 100 to 104 °C.

In turn, `CC(C)(C)NCC(O)COc1ccccc1-c1csnn1` (stereo unspecified) yielded a melting point of 99 to 100 °C.

The compound `O=C(O)[C@@H]1CSCN1C(=O)OCc1ccccc1` returned a melting point of 58 to 63 °C. The result for `CCn1cc(C(=O)O)c(=O)c2cc(F)c(N3CC(C)(N)C3)cc21` reads 280 to 283 °C. The result for `CC(O)c1ccc(-c2ccc(C(=O)OCc3ccccc3)cc2)cc1` (single isomer, unassigned; (+)) reads 104 to 106 °C; that for `COc1ccc(C2=NN(CC(=O)c3ccccc3OC)C(=O)[C@H]3CCCC[C@@H]23)cc1OC` (relative stereo), 93 to 96 °C; that for `CCn1c2ccccc2n2c(=O)c(C(=O)NC)cnc12`, 178 to 180 °C. Turning to `CNC(=O)c1sc(C(C)(C)C)cc1NC(=O)Nc1ccc(C(C)C)cc1`, the melting point is 113 to 120 °C. `O=[N+]([O-])c1ccc2[nH]cc(C3=CCC4(CC3)OCCO4)c2c1` came in with a melting point of 175 to 177 °C.

`CCC(=O)N1Cc2ccccc2C2(Cc3ccc(Cl)cc3O2)C1` (stereo unspecified) returned a melting point of 106 to 107 °C. On to `Nc1c(CC(=O)O)cccc1Nc1ccccc1Cl`, for which the melting point lay in the range of 230 to 232 °C. The result for `CCCCCCc1ccc(C=CC(=O)c2ccc(OCC=C(C)C)cc2OCC(=O)OCC)cc1` reads 56 to 57 °C; that for `CCCc1nc(C(O)C(C)C)c(C(N)=O)n1Cc1ccc(-c2ccccc2-c2nnn[nH]2)cc1` (stereo unspecified), 153 to 157 °C; that for `O=C(O)CCC(=O)c1ccc(NC(=O)C2(Cl)CC2)cc1`, 178 to 179 °C. Compound `CCOc1ccc(OC)c2c1CCC=C2` displayed a melting point of 59 to 60 °C.

Regarding `O=C(CCl)Nc1ccc2c(c1NC(=O)CSc1ccccc1)C(=O)c1ccccc1C2=O`, the melting point fell in the range of 161 to 162 °C.

On to `CCCCCCCCOCCCCC(=O)O`, for which the melting point is < 30 °C.

With `CCc1nc2c(n1C(CC)CC)C(=O)N(C)C(C)N2c1ccc(Cl)cc1Cl` (stereo unspecified), the melting point lay within 135 to 136 °C. The compound `CC(C)n1cc(-c2ccccc2)c(=O)c(-c2ccccc2)c1` displayed a melting point of 152 °C. For the compound `COc1cc2c(c3c1OC(C)(C)C3)C(c1cccc(-c3ccc(NC(=O)CNC(C)=O)cc3)c1)=NC(C)(C)C2`, the melting point fell in the range of 218 to 221 °C. For `COc1ccc(N2CCOCC2)c2sc(C(=O)NCC(=O)c3sc4ccccc4c3C)nc12`, the melting point was 180 °C. `O=C(c1cccc(C(F)(F)F)c1)c1cc2c(Br)cccc2o1` showed a melting point of 91 to 92 °C. `COC(=O)C(=CN(C)C)c1sc(Cl)nc1COc1ccccc1` had a melting point of 114 °C. The figure for `O=C(Nc1ccc(C(=O)N2Cc3ccccc3Cc3ccccc32)cc1)c1c(Cl)cccc1Cl` is 257 to 259 °C; for `Cc1cc(S)n2nc(CC(=O)O)nc2n1` it is 253 to 255 °C.

As for `CN(C(=O)OC(C)(C)C)c1cc(Oc2ccc(-c3ccccc3)cc2)ccc1N`, the melting point lay within 122 to 123 °C. Turning to `O=C(NCCCCOc1ccc(-n2ccnc2)cc1)c1cccc2ccccc12`, the melting point is 157 to 159 °C. As for `Cc1cc(C)cc(C(=O)c2c(C(C)C)c(=O)[nH]c(=O)n2CC2CCCC2)c1`, the melting point is 167 to 168 °C.

The compound `C=Cc1c(N)cc(Cl)nc1C(=O)OC` returned a melting point of 53 to 54 °C.

Compound `COc1ccccc1CCC(=O)Nc1sc2c(c1C#N)CCN(C(=O)OC(C)(C)C)C2` registered a melting point of 198 °C. The figure for `CCOC(=O)C1=C2c3[nH]c4ccc(Cl)cc4c3CCN2CCC1` is 82 to 83 °C; for `CCc1nc2cc(Cl)c(Cl)nc2n1-c1ccc(CCNC(=O)NS(=O)(=O)c2ccc(C)cc2)cc1` it is 188 to 189 °C. The result for `O=c1c(Cl)c(-c2ccc(F)cc2)c1=O` reads 113 to 115 °C. The figure for `Cc1cc(C)n(C(=O)C(NS(=O)(=O)c2ccc(Cl)cc2)c2ccccc2)n1` (stereo unspecified) is 160 °C; for `C=CCOc1ccc2c(C)c(C(=O)C=Cc3cc(OC)c(OC)c(OC)c3)c(=O)oc2c1` it is 138 to 140 °C; for `COc1ccc(-c2cnc(N)c(Cc3ccccc3)n2)cc1` it is 150 to 153 °C. In the case of `COc1ccc(CSc2cnc(O)nc2O)cc1`, the melting point is 277 °C. The result for `COC(=O)Cc1ccc(OCCNC(=O)C2Cc3ccccc3N2S(=O)(=O)c2ccc(-c3cc(F)ccc3Cl)cc2)cc1` (stereo unspecified) reads 52 to 56 °C. The figure for `CN(C)CCCOc1ccc(C[C@H](NC(=O)[C@@H]2CCCN2S(=O)(=O)c2cccs2)C(=O)O)cc1` is > 200 °C. The result for `Cc1sc2c(c1CCN1CCC(c3noc4cc(F)ccc34)CC1)CCNC2` reads 88 to 90 °C; that for `CN1C(=O)CCC(C)(C)c2cc(Nc3ncc(Cl)c(N[C@H]4[C@@H](C(N)=O)[C@@H]5C=C[C@H]4C5)n3)ccc21`, 233 °C; that for `O=C(NC(=S)Nc1ccc2nsnc2c1Cl)c1ccccc1`, 220 to 222 °C.

Take `CC(=O)OC1CSC(Oc2cccc(-c3ccccn3)c2)C(OC(C)=O)C1OC(C)=O` (stereo unspecified): the melting point fell in the range of 68 to 97 °C.

As for `CC(C)(O)c1cccc(OCc2nc3cc(F)ccc3s2)c1`, the melting point was in the range of 124 to 125 °C. Compound `COc1cc(C=O)ccc1OC(C)c1nc(-c2ccccc2)oc1C` (stereo unspecified) had a melting point of 104 to 105 °C. The figure for `CCS(=O)(=O)c1ccc(C(=O)O)c(Cl)c1CBr` is 103 °C; for `CCCCCCC(C)(C)c1cc(OCc2ccccc2)c(C2=C(C(C)(C)C#N)CCC(C)C2)c(OCc2ccccc2)c1` (stereo unspecified) it is 65 to 66 °C; for `CCOC(=O)C(CC)=C(C)NC(=O)Nc1cc(C(=O)OC(C)C)c(Cl)cc1F` it is 112 to 115 °C. The figure for `CCOC(=O)N(CC)c1c(OC)cc(Cc2cnc(N)nc2N)cc1OC` is 165 to 167 °C; for `O=C(C=Cc1cccc(S(=O)(=O)NCc2cccnc2)c1)NO` it is 191 °C. The figure for `CC(C)(C)c1ccc(OP2OCC3(CO2)COP(Oc2ccc(C(C)(C)C)cc2C(C)(C)C)OC3)c(C(C)(C)C)c1` (stereo unspecified) is 174 to 177 °C; for `CC(C)c1cccc(C(C)C)c1NC(=O)CNC(c1ccc(F)cc1)c1ccc(F)cc1` it is 150 to 151 °C; for `NC(=O)N(O)Cc1ccc(C(O)C#Cc2ccsc2)cc1` (stereo unspecified) it is 117 to 119 °C. `CCOC(=O)c1c[nH]c(=O)s1` yielded a melting point of 127 °C.

`O=C(c1ccccc1)C(OCCN1CCCCC1)c1ccccc1` (stereo unspecified) showed a melting point of 53 °C. The result for `CCOc1c(C(=O)O)cnc2c1cnn2CC` reads 198 to 199 °C; that for `CC1(C)OC(=O)c2c(cccc2-c2ccccc2)O1`, 158 to 163 °C; that for `CCN(CC)c1ccc(C2(c3ccc(N(C)C)cc3N(C)C)OC(=O)c3ccccc32)cc1` (stereo unspecified), 168 to 170 °C. The result for `c1ccc2c(c1)cnn2-c1nc(NC2CCCCC2)c2ccccc2n1` reads 278 to 281 °C; that for `CCCC1C(O)=CC(=O)N1c1ccc(C#N)c(Cl)c1` (stereo unspecified), 156 to 158 °C. The result for `O=C(NCCCCOc1ccc(-n2ccnc2)cc1)c1ccc(I)cc1` reads 143 to 145 °C; that for `O=C1CCC(CO)N1C(=O)Nc1ccccc1` (stereo unspecified), 99 to 101 °C; that for `Cc1noc(NS(=O)(=O)c2ccccc2-c2c[nH]c3ccccc23)c1C`, 184 to 186 °C. Take `OCc1ccc(OCCCCCCCCCCC2c3c(c4ccccc4c4ccccc34)-c3c2c2ccccc2c2ccccc32)cc1`: the melting point was in the range of 64 to 66 °C. The result for `O=[N+]([O-])c1cccc(/C=C/c2nc(C3CCC3)cs2)c1` reads 78 to 80 °C; that for `COc1cc(CCCCCC2OCCO2)ccc1OCc1nc(-c2ccccc2)oc1C`, 81 to 82 °C. The figure for `Nc1nc2c(NCc3ccccc3)ncnc2n1C1OC(CO)C(O)C1O` (stereo unspecified) is 80 to 82 °C; for `N#Cc1ccc(-c2ccc(S(=O)(=O)CC(CSc3ccccc3)C(=O)O)cc2)cc1` (stereo unspecified) it is 243 to 247 °C; for `COc1ccc(C2CCC(OC(C)=O)CC2NC(=O)c2ccc(OCC3CC3)c(OCC3CC3)c2)cc1OC` (stereo unspecified) it is 90 to 95 °C. The figure for `COCc1c(C(=O)OC)sc2nnsc12` is 123 to 124 °C; for `CS(=O)(=O)Nc1cc(C=C2c3ccccc3CCc3ccccc32)ccc1O` it is 123 °C; for `Cc1nc2c([N+](=O)[O-])cc3nc(O)c(O)nc3c2nc1C` it is > 300 °C. As for `CN(CCNC(=NCCSCc1csc(NC(=N)N)n1)NC#N)CCN(Cc1ccc(F)cc1)c1ccccn1`, the melting point stood at 109 °C.
